According to PMC11240139, “Exploring the antitumor potential of novel quinoline derivatives via tubulin polymerization inhibition in breast cancer; design, synthesis and molecular docking” (RSC Advances, 2024):

Assays:
OVCAR-3 (ovarian cancer) = assay: NCI-60 SRB cytotoxicity screen; type: cell-based; settings: Homo sapiens; OVCAR-3, single dose 10 μM; read-out: growth inhibition (GI%)
[1] = tested on: NCI-H226 (non-small cell lung cancer); assay: NCI-60 SRB cytotoxicity screen; type: cell-based; settings: Homo sapiens; NCI-H226, single dose 10 μM; read-out: growth inhibition (GI%)
M14 (melanoma) = assay: NCI-60 SRB cytotoxicity screen; type: cell-based; settings: Homo sapiens; M14, single dose 10 μM; read-out: growth inhibition (GI%)
[2] = tested on: EKVX (non-small cell lung cancer); assay: NCI-60 SRB cytotoxicity screen; type: cell-based; settings: Homo sapiens, single dose 10 μM, read-out: growth inhibition (GI%)
[3] = tested on: HOP-92 (non-small cell lung cancer); assay: NCI-60 SRB cytotoxicity screen; type: cell-based; settings: Homo sapiens; HOP-92, single dose 10 μM; read-out: growth inhibition (GI%)
SF-295 (CNS cancer) = assay: NCI-60 SRB cytotoxicity screen; type: cell-based; settings: Homo sapiens; SF-295, single dose 10 μM; read-out: growth inhibition (GI%)
UACC-257 (melanoma) = assay: NCI-60 SRB cytotoxicity screen; type: cell-based; settings: Homo sapiens; UACC-257, single dose 10 μM; read-out: growth inhibition (GI%)
[4] = tested on: MDA-MB-231/ATCC (breast cancer); assay: NCI-60 SRB cytotoxicity screen; type: cell-based; settings: Homo sapiens, MDA-MB-231, read-out: growth inhibition (GI%);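 also: growth inhibition in percent at a single 10 µM dose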
SN12C (renal cancer) = assay: NCI-60 SRB cytotoxicity screen; type: cell-based; settings: Homo sapiens, single dose 10 μM, read-out: growth inhibition (GI%)
KM12 (colon cancer) = assay: NCI-60 SRB cytotoxicity screen; type: cell-based; settings: Homo sapiens; KM12, single dose 10 μM; read-out: growth inhibition (GI%)
MOLT-4 (leukemia) = assay: NCI-60 SRB cytotoxicity screen; type: cell-based; settings: Homo sapiens; MOLT-4, single dose 10 μM; read-out: growth inhibition (GI%)
TK-10 (renal cancer) = assay: NCI-60 SRB cytotoxicity screen; type: cell-based; settings: Homo sapiens; TK-10, single dose 10 μM; read-out: growth inhibition (GI%)
CAKI-1 (renal cancer) = assay: NCI-60 SRB cytotoxicity screen; type: cell-based; settings: Homo sapiens; CAKI-1, single dose 10 μM; read-out: growth inhibition (GI%)
SNB-75 (CNS cancer) = assay: NCI-60 SRB cytotoxicity screen; type: cell-based; settings: Homo sapiens, SNB-75, SNB-75, single dose 10 μM; read-out: growth inhibition (GI%)
LOX IMVI (melanoma) = assay: NCI-60 SRB cytotoxicity screen; type: cell-based; settings: Homo sapiens, single dose 10 μM, read-out: growth inhibition (GI%)
DU-145 (prostate cancer) = assay: NCI-60 SRB cytotoxicity screen; type: cell-based; settings: Homo sapiens; DU-145, single dose 10 μM; read-out: growth inhibition (GI%)
HCT-116 (colon cancer) = assay: NCI-60 SRB cytotoxicity screen; type: cell-based; settings: Homo sapiens; HCT-116, single dose 10 μM; read-out: growth inhibition (GI%)
RPMI-8226 (leukemia) = assay: NCI-60 SRB cytotoxicity screen; type: cell-based; settings: Homo sapiens; RPMI-8226, single dose 10 μM; read-out: growth inhibition (GI%)
MALME-3M (melanoma) = assay: NCI-60 SRB cytotoxicity screen; type: cell-based; settings: Homo sapiens, single dose 10 μM, read-out: growth inhibition (GI%)
HT29 (colon cancer) = assay: NCI-60 SRB cytotoxicity screen; type: cell-based; settings: Homo sapiens, HT-29; HT29, single dose 10 μM; read-out: growth inhibition (GI%)
SK-MEL-28 (melanoma) = assay: NCI-60 SRB cytotoxicity screen; type: cell-based; settings: Homo sapiens; SK-MEL-28, single dose 10 μM; read-out: growth inhibition (GI%)
[5] = tested on: NCI/ADR-RES (ovarian cancer); assay: NCI-60 SRB cytotoxicity screen; type: cell-based; settings: Homo sapiens, single dose 10 μM, read-out: growth inhibition (GI%)
COLO 205 (colon cancer) = assay: NCI-60 SRB cytotoxicity screen; type: cell-based; settings: Homo sapiens; COLO 205, single dose 10 μM; read-out: growth inhibition (GI%)
786-0 (renal cancer) = assay: NCI-60 SRB cytotoxicity screen; type: cell-based; settings: Homo sapiens; 786-0, single dose 10 μM; read-out: growth inhibition (GI%)
HCC-2998 (colon cancer) = assay: NCI-60 SRB cytotoxicity screen; type: cell-based; settings: Homo sapiens; HCC-2998, single dose 10 μM; read-out: growth inhibition (GI%)
IGROV1 (ovarian cancer) = assay: NCI-60 SRB cytotoxicity screen; type: cell-based; settings: Homo sapiens, IGROV-1; IGROV1, single dose 10 μM; read-out: growth inhibition (GI%)
SW-620 (colon cancer) = assay: NCI-60 SRB cytotoxicity screen; type: cell-based; settings: Homo sapiens; SW-620, single dose 10 μM; read-out: growth inhibition (GI%)
PC-3 (prostate cancer) = assay: NCI-60 SRB cytotoxicity screen; type: cell-based; settings: PC-3, single dose 10 μM; read-out: growth inhibition (GI%)
A498 (renal cancer) = assay: NCI-60 SRB cytotoxicity screen; type: cell-based; settings: Homo sapiens; A498, single dose 10 μM; read-out: growth inhibition (GI%)

Compound | inhibition at 10 µM [1] [%] | inhibition at 10 µM [2] [%] | inhibition at 10 µM [3] [%] | inhibition at 10 µM (SF-295 (CNS cancer)) [%] | inhibition at 10 µM (UACC-257 (melanoma)) [%] | inhibition at 10 µM [4] [%] | inhibition at 10 µM (SN12C (renal cancer)) [%] | melting point [°C] | inhibition at 10 µM (KM12 (colon cancer)) [%] | inhibition at 10 µM (MOLT-4 (leukemia)) [%] | inhibition at 10 µM (TK-10 (renal cancer)) [%] | inhibition at 10 µM (CAKI-1 (renal cancer)) [%] | inhibition at 10 µM (SNB-75 (CNS cancer)) [%] | inhibition at 10 µM (LOX IMVI (melanoma)) [%] | inhibition at 10 µM (HCT-116 (colon cancer)) [%] | inhibition at 10 µM (RPMI-8226 (leukemia)) [%] | inhibition at 10 µM (MALME-3M (melanoma)) [%] | inhibition at 10 µM [5] [%] | inhibition at 10 µM (COLO 205 (colon cancer)) [%] | inhibition at 10 µM (786-0 (renal cancer)) [%] | also measured
CCc1cccc2cc(C3C=C(c4ccc(OC)c(OC)c4)NC(=S)N3)c(Cl)nc12 (stereo not shown) [Compound 6b, 4-(2-Chloro-8-ethylquinolin-3-yl)-6-(3,4-dimethoxyphenyl)-3,4-dihydropyrimidine-2(1H)-thione] | 15.4 | < 10 | < 10 | < 10 | < 10 | < 10 | < 10 | 237 to 239 | < 10 | 53.3 | < 10 | 30.2 | < 10 | < 10 | 17.2 | 36.1 | < 10 | 11.1 | < 10 | < 10 | inhibition at 10 µM (OVCAR-3 (ovarian cancer)): < 10%; inhibition at 10 µM (M14 (melanoma)): < 10%; inhibition at 10 µM (DU-145 (prostate cancer)): < 10%; inhibition at 10 µM (HT29 (colon cancer)): < 10%; inhibition at 10 µM (SK-MEL-28 (melanoma)): < 10%; inhibition at 10 µM (HCC-2998 (colon cancer)): < 10%; inhibition at 10 µM (IGROV1 (ovarian cancer)): < 10%; inhibition at 10 µM (SW-620 (colon cancer)): < 10%; inhibition at 10 µM (PC-3 (prostate cancer)): < 10%; inhibition at 10 µM (A498 (renal cancer)): < 10%
CCc1cccc2cc(-c3cc(-c4ccc(F)cc4)[nH]c(=O)c3C#N)c(Cl)nc12 [Compound 4d, 4-(2-Chloro-8-ethylquinolin-3-yl)-6-(4-fluorophenyl)-2-oxo-1,2-dihydropyridine-3-carbonitrile] | 14.3 | < 10 | < 10 | < 10 | < 10 | 19.9 | < 10 | 260 to 262 | < 10 | 15 | < 10 | 19.5 | < 10 | 15.3 | < 10 | 14 | < 10 | < 10 | < 10 | < 10 | inhibition at 10 µM (OVCAR-3 (ovarian cancer)): < 10%; inhibition at 10 µM (DU-145 (prostate cancer)): < 10%; inhibition at 10 µM (SK-MEL-28 (melanoma)): < 10%; inhibition at 10 µM (HCC-2998 (colon cancer)): < 10%; inhibition at 10 µM (IGROV1 (ovarian cancer)): < 10%; inhibition at 10 µM (SW-620 (colon cancer)): < 10%; inhibition at 10 µM (PC-3 (prostate cancer)): < 10%; inhibition at 10 µM (A498 (renal cancer)): < 10%
CCc1cccc2cc(C3C=C(c4cc(OC)c(OC)c(OC)c4)NC(=S)N3)c(Cl)nc12 (stereo not shown) [Compound 6c, 4-(2-Chloro-8-ethylquinolin-3-yl)-6-(3,4,5-trimethoxyphenyl)-3,4-dihydropyrimidine-2(1H)-thione] | 58 | 37.9 | 28.3 | 30 | 13.1 | 46.1 | 21.7 | 235 to 237 | 28.1 | 67.7 | 12.6 | 64.1 | 23.2 | 33.3 | 41.2 | 57.6 | < 10 | 34 | 24.4 | 18.2 | inhibition at 10 µM (OVCAR-3 (ovarian cancer)): 14.2%; inhibition at 10 µM (M14 (melanoma)): 30.1%; inhibition at 10 µM (DU-145 (prostate cancer)): 21.7%; inhibition at 10 µM (HT29 (colon cancer)): 36.4%; inhibition at 10 µM (HCC-2998 (colon cancer)): 26.1%; inhibition at 10 µM (IGROV1 (ovarian cancer)): 14.3%; inhibition at 10 µM (SW-620 (colon cancer)): 13.4%; inhibition at 10 µM (PC-3 (prostate cancer)): 46.2%; inhibition at 10 µM (A498 (renal cancer)): 11.6%
CCc1cccc2cc(-c3cc(-c4ccc(F)cc4)[nH]c(=S)c3C#N)c(Cl)nc12 [Compound 5d, 4-(2-Chloro-8-ethylquinolin-3-yl)-6-(4-fluorophenyl)-2-thioxo-1,2-dihydropyridine-3-carbonitrile] | 25.9 | 19.6 | 11.4 | 12.3 | < 10 | 31.2 | < 10 | 235 to 237 | < 10 | 26.8 | < 10 | 31.1 | 39.1 | 12.4 | < 10 | 23 | < 10 | < 10 | < 10 | < 10 | inhibition at 10 µM (M14 (melanoma)): < 10%; inhibition at 10 µM (HT29 (colon cancer)): < 10%; inhibition at 10 µM (SK-MEL-28 (melanoma)): < 10%; inhibition at 10 µM (HCC-2998 (colon cancer)): < 10%; inhibition at 10 µM (IGROV1 (ovarian cancer)): 28.6%; inhibition at 10 µM (SW-620 (colon cancer)): < 10%; inhibition at 10 µM (PC-3 (prostate cancer)): 4.57%; inhibition at 10 µM (A498 (renal cancer)): < 10%
